Target: T1, horse spleen apoferritin (HSAF) (Equus caballus, UniProt P02791)
T1 sequence (P02791 2-175): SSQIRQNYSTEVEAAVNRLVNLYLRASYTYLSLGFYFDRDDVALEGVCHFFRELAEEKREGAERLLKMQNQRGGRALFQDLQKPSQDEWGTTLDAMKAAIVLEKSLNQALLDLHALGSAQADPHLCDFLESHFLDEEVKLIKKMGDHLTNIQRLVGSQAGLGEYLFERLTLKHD
Assay: 1-AMA fluorescence displacement
Type: binding

Structure (SMILES) | IC50
CC(C)c1cccc(C2(C(F)(F)F)N=N2)c1F [compound 1, 3-(2-fluoro-3-isopropylphenyl)-3-(trifluoromethyl)-3H-diazirine] | 17 µM
CC(C)c1cccc(C(C)C)c1F [fropofol] | 11 µM

Reference: PMC7948515 (ACS chemical neuroscience, 2020)
